Experimental data taken from patent US8987321B2, “Lisofylline analogs and methods for use” (University of Virginia Patent Foundation, priority 2005, dated 2015).

Molecular target: T1, rCYP 1A2 (Homo sapiens, UniProt P05177)
T1 sequence (P05177 1-516): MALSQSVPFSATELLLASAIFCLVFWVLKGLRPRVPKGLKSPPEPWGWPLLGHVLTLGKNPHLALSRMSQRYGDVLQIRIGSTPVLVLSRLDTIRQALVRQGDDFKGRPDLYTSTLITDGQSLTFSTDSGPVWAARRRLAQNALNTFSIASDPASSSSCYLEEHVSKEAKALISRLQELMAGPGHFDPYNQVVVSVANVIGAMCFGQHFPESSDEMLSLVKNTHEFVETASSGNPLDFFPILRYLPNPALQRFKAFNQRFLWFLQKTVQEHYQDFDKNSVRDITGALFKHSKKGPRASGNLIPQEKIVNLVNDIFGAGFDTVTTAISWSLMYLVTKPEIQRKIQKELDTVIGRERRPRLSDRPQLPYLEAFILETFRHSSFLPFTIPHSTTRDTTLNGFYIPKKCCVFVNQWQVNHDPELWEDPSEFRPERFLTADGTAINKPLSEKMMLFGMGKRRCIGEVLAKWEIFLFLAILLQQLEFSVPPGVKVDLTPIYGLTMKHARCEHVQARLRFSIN
Assay: rCYP450 inhibition, 1A2
Type: in vitro ADME
Design: concentration or dose not given beside the values
Conditions: not given
Description: (§1) Further evaluations were performed for some of the LSF analogs in MDS assays, solubility, oral bioavailability, and stability (see Table 1). Analogs having greater than 50% inhibitory activity were considered to have high activity; analogs having from 20-49% inhibitory activity were considered to have medium activity; and analogs having less than 20 inhibitory activity were considered to have low activity

| SMILES | rCYP % Inhibition 1A2 |
| --- | --- |
| CC(O)CCCCN1C(=O)C(C)N(CCCCC(C)O)C(=O)C1C (mixture of isomers) [CPW6] | 13% |
| CC(=O)O[C@H](C)CCCCn1ccc2cc(Br)ccc21 [CPW1] | 58% |
| C[C@@H](O)CCCCn1ccc2cc(Br)ccc21 [CPW4] | 56% |
| C[C@@H]([O-])CCCCN1C(=O)COc2ccccc21.[Na+] [CPW7] | 12% |
| CC(=O)O[C@H](C)CCCCn1[nH]c(=O)n(-c2ccccc2)c1=O [CPW8] | 7% |
| C[C@@H](O)CCCCn1[nH]c(=O)n(-c2ccccc2)c1=O [CPW9] | 5% |
| C[C@@H](O)CCCCOc1nn(CCCC[C@@H](C)O)c(=O)c2ccccc12 [CPW13] | 25% |
| C[C@@H](O)CCCCN1c2ccccc2Oc2ccccc21 [CPW20] | 95% |

Molecular target: rCYP 2C9 (Homo sapiens, UniProt P11712)
Sequence (P11712 whole entry): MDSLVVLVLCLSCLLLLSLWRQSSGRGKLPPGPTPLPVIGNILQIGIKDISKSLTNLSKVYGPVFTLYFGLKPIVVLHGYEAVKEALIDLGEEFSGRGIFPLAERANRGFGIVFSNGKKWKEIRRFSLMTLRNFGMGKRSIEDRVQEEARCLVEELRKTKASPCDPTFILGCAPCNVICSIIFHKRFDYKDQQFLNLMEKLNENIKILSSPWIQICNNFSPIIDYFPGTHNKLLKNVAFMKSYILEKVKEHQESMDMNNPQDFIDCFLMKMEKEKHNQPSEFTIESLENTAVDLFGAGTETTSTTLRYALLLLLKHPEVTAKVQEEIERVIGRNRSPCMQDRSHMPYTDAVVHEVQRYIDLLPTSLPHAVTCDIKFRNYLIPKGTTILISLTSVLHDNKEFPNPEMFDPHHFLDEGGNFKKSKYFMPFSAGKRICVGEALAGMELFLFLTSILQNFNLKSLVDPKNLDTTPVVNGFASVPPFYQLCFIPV
Assay: rCYP450 inhibition, 2C9
Type: in vitro ADME
Design: concentration or dose not given beside the values
Conditions: not given
Description: as §1

| SMILES | rCYP % Inhibition 2C9 |
| --- | --- |
| CC(O)CCCCN1C(=O)C(C)N(CCCCC(C)O)C(=O)C1C (mixture of isomers) [CPW6] | 3% |
| CC(=O)O[C@H](C)CCCCn1ccc2cc(Br)ccc21 [CPW1] | 86% |
| C[C@@H](O)CCCCn1ccc2cc(Br)ccc21 [CPW4] | 38% |
| C[C@@H]([O-])CCCCN1C(=O)COc2ccccc21.[Na+] [CPW7] | 5% |
| CC(=O)O[C@H](C)CCCCn1[nH]c(=O)n(-c2ccccc2)c1=O [CPW8] | 5% |
| C[C@@H](O)CCCCn1[nH]c(=O)n(-c2ccccc2)c1=O [CPW9] | −12% |
| C[C@@H](O)CCCCOc1nn(CCCC[C@@H](C)O)c(=O)c2ccccc12 [CPW13] | 92% |
| C[C@@H](O)CCCCN1c2ccccc2Oc2ccccc21 [CPW20] | 86% |

Molecular target: rCYP 2C19 (Homo sapiens, UniProt P33261)
Sequence (P33261 whole entry): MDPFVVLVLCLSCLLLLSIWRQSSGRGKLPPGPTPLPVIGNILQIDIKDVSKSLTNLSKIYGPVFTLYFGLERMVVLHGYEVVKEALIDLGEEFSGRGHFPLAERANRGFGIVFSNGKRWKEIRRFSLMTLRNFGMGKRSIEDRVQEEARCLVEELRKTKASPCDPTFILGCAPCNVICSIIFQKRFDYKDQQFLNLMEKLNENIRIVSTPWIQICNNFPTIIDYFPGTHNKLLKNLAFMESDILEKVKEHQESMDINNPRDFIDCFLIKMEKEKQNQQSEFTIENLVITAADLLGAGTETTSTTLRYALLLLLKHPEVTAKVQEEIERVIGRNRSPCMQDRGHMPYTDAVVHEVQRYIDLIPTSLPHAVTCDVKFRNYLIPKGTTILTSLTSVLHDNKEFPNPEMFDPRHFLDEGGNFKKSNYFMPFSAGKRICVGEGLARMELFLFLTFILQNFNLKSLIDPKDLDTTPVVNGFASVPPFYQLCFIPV
Assay: rCYP450 inhibition, 2C19
Type: in vitro ADME
Design: concentration or dose not given beside the values
Conditions: not given
Description: as §1

| SMILES | rCYP % Inhibition 2C19 |
| --- | --- |
| CC(O)CCCCN1C(=O)C(C)N(CCCCC(C)O)C(=O)C1C (mixture of isomers) [CPW6] | 14% |
| CC(=O)O[C@H](C)CCCCn1ccc2cc(Br)ccc21 [CPW1] | 99% |
| C[C@@H](O)CCCCn1ccc2cc(Br)ccc21 [CPW4] | 94% |
| C[C@@H]([O-])CCCCN1C(=O)COc2ccccc21.[Na+] [CPW7] | 12% |
| CC(=O)O[C@H](C)CCCCn1[nH]c(=O)n(-c2ccccc2)c1=O [CPW8] | 24% |
| C[C@@H](O)CCCCn1[nH]c(=O)n(-c2ccccc2)c1=O [CPW9] | 1% |
| C[C@@H](O)CCCCOc1nn(CCCC[C@@H](C)O)c(=O)c2ccccc12 [CPW13] | 89% |
| C[C@@H](O)CCCCN1c2ccccc2Oc2ccccc21 [CPW20] | 98% |

Molecular target: rCYP 2D6 (Homo sapiens, UniProt P10635)
Sequence (P10635 whole entry): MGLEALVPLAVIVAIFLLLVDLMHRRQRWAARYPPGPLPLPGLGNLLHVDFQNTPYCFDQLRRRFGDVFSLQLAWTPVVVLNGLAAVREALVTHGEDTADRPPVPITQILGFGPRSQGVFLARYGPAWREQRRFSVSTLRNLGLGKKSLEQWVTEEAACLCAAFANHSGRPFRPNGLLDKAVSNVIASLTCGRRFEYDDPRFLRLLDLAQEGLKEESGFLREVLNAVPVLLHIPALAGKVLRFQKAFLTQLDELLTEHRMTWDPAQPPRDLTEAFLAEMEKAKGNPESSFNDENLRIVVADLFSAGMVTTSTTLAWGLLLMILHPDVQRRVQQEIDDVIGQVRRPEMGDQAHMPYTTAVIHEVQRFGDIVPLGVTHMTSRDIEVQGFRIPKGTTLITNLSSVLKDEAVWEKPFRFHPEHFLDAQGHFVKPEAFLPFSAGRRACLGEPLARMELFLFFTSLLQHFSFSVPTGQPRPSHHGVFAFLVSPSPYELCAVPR
Assay: rCYP450 inhibition, 2D6
Type: in vitro ADME
Design: concentration or dose not given beside the values
Conditions: not given
Description: as §1

| SMILES | rCYP % Inhibition 2D6 |
| --- | --- |
| CC(O)CCCCN1C(=O)C(C)N(CCCCC(C)O)C(=O)C1C (mixture of isomers) [CPW6] | 16% |
| CC(=O)O[C@H](C)CCCCn1ccc2cc(Br)ccc21 [CPW1] | 80% |
| C[C@@H](O)CCCCn1ccc2cc(Br)ccc21 [CPW4] | 50% |
| C[C@@H]([O-])CCCCN1C(=O)COc2ccccc21.[Na+] [CPW7] | 8% |
| CC(=O)O[C@H](C)CCCCn1[nH]c(=O)n(-c2ccccc2)c1=O [CPW8] | 10% |
| C[C@@H](O)CCCCn1[nH]c(=O)n(-c2ccccc2)c1=O [CPW9] | 2% |
| C[C@@H](O)CCCCOc1nn(CCCC[C@@H](C)O)c(=O)c2ccccc12 [CPW13] | −28% |
| C[C@@H](O)CCCCN1c2ccccc2Oc2ccccc21 [CPW20] | 73% |

Molecular target: rCYP 3A4 (Homo sapiens, UniProt P08684)
Sequence (P08684 whole entry): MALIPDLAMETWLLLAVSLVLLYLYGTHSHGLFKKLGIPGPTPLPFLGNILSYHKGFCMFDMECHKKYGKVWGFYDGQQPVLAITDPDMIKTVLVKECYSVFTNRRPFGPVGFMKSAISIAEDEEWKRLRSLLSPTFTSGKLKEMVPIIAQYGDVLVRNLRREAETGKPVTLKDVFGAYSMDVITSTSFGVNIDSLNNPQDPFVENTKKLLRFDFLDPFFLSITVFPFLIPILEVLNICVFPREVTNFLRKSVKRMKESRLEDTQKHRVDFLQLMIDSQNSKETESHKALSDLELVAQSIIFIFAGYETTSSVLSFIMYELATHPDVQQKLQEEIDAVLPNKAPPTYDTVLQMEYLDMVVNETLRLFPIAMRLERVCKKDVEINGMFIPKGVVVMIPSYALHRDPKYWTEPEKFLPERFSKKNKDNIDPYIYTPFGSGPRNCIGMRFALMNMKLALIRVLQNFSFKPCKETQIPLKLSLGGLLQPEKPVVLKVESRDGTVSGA
Assay: rCYP450 inhibition, 3A4
Type: in vitro ADME
Design: concentration or dose not given beside the values
Conditions: not given
Description: as §1

| SMILES | rCYP % Inhibition 3A4 |
| --- | --- |
| CC(O)CCCCN1C(=O)C(C)N(CCCCC(C)O)C(=O)C1C (mixture of isomers) [CPW6] | 14% |
| CC(=O)O[C@H](C)CCCCn1ccc2cc(Br)ccc21 [CPW1] | 57% |
| C[C@@H](O)CCCCn1ccc2cc(Br)ccc21 [CPW4] | 32% |
| C[C@@H]([O-])CCCCN1C(=O)COc2ccccc21.[Na+] [CPW7] | 12% |
| CC(=O)O[C@H](C)CCCCn1[nH]c(=O)n(-c2ccccc2)c1=O [CPW8] | 12% |
| C[C@@H](O)CCCCn1[nH]c(=O)n(-c2ccccc2)c1=O [CPW9] | −4% |
| C[C@@H](O)CCCCOc1nn(CCCC[C@@H](C)O)c(=O)c2ccccc12 [CPW13] | −159% |
| C[C@@H](O)CCCCN1c2ccccc2Oc2ccccc21 [CPW20] | 50% |

System: not listed separately
Assay: Metabolic stability
Type: in vitro ADME
Conditions: not given
Description: Further evaluations were performed for some of the LSF analogs in MDS assays, solubility, oral bioavailability, and stability (see Table 1).

| SMILES | Metabolic Stability Percent Remaining |
| --- | --- |
| CC(O)CCCCN1C(=O)C(C)N(CCCCC(C)O)C(=O)C1C (mixture of isomers) [CPW6] | 77% |
| CC(=O)O[C@H](C)CCCCn1ccc2cc(Br)ccc21 [CPW1] | 0% |
| C[C@@H](O)CCCCn1ccc2cc(Br)ccc21 [CPW4] | 0% |
| CC(=O)O[C@H](C)CCCCn1[nH]c(=O)n(-c2ccccc2)c1=O [CPW8] | 45% |
| C[C@@H](O)CCCCn1[nH]c(=O)n(-c2ccccc2)c1=O [CPW9] | 106% |
| C[C@@H](O)CCCCOc1nn(CCCC[C@@H](C)O)c(=O)c2ccccc12 [CPW13] | 38% |
| C[C@@H](O)CCCCN1c2ccccc2Oc2ccccc21 [CPW20] | 19% |

System: INS-1 cells
Assay: Protection of INS-1 cells from cytokine-induced cell death
Type: cell-based, rat
Conditions: IL-1β + IFNγ + TNFα, 18 hours
Description: The effects of LSF analogs on β-cells in the […] insulin-secreting INS-1 cell line were investigated. Cells were maintained in RPMI 1640 medium (Life Technologies, Inc., Gaithersburg, Md.) supplemented with 10% heat-inactivated FBS, 10 mm HEPES, 200 μm L-glutamine, 1 mm sodium pyruvate, […] 2-mercaptoethanol, 50 U/ml penicillin, and 50 μg/ml streptomycin at pH 7.4. The cells were cultured at 37° C. in a humidified incubator supplied with 5% carbon dioxide. Fresh medium was replaced every 2 days. The cells were plated at a density of […]. Culture vessels were coated with poly-D-lysine and gelatin (Sigma, St. Louis, Mo.) to retain detached and dead cells so that seeding cell numbers reflect the actual cell numbers after all treatment conditions. INS-1 cells were treated with the combination of recombinant mouse IL-1β (5 ng/ml), IFNγ (100 ng/ml), and TNFα (10 ng/ml; R&D Systems, Inc., Minneapolis, Minn.) suspended in complete RPMI medium. LSF (provided by Cell Therapeutics, Inc., Seattle, Wash.) and analogs were added simultaneously with the cytokines in complete RPMI medium. All treatments were performed for 18 hours.
INS-1 cells were treated with a combination of recombinant IL-1β, INFγ, and TNFα with 10^−5-10^3 μM LSF and its analogs. […] There was no further increase in β-cell protection when the LSF concentration was increased from 10^−2 to 10^2 μM. […] No further increases in β-cell protection were observed when analog concentrations were increased.
The effects of LSF analogs on insulin secretion in INS-1 cells with and without inflammatory cytokines. β-Cells were treated with apoptosis detecting dye for 2-3 hours at room temperature. Apoptotic cells were recognized with purple-red color under a microscope. After washing to eliminate free dye and adding dye release reagent, color density was quantified by reading at OD 450 nm. […] Insulin secreted into the supernatant was measured by RIA with mouse insulin as a standard. […]

| SMILES | concentration of maximum protective effect |
| --- | --- |
| C[C@@H](O)CCCCn1c(=O)c2c(ncn2C)n(C)c1=O [LSF, 1-(5-R-hydroxyhexyl)-3,7-dimethylxanthine] | 10^−2 μM |

System: INS-1 cells
Assay: Insulin secretion in INS-1 cells
Type: cell-based, rat
Conditions: 20 μM
Description: The effects of LSF analogs on insulin secretion in INS-1 cells with and without inflammatory cytokines. β-Cells were treated with apoptosis detecting dye for 2-3 hours at room temperature. Apoptotic cells were recognized with purple-red color under a microscope. After washing to eliminate free dye and adding dye release reagent, color density was quantified by reading at OD 450 nm. At the end of treatment, cells were washed with Krebs-Ringer-bicarbonate-HEPES buffer (KRB) containing 134 mm NaCl, 4.7 mm KCl, 1.2 mm KH2PO4, 1.2 mm MgSO4, 1.0 mm CaCl2, 10 mm HEPES, and 0.1% BSA at 37° C., pH 7.4. The cells were preincubated in the same buffer for 30 min, followed by 60-min incubation in KRB supplemented with 15 mM D-glucose (J. T. Baker, Phillipsburg, N.J.). The supernatant was harvested and subjected to centrifugation to eliminate residue cells. Insulin secreted into the supernatant was measured by RIA with mouse insulin as a standard. The cells are maintained in basal (3 mM) and glucose-stimulated (28 mM). […] Insulin secretion in INS-1 cells: (a) LSF, (b) compound CPW11, and (c) compound CPW12. […]

| SMILES | insulin release |
| --- | --- |
| C[C@@H](O)CCCCn1c(=O)c2c(ncn2C)n(C)c1=O [LSF, 1-(5-R-hydroxyhexyl)-3,7-dimethylxanthine] | Insulin release was observed |

System: not given
Assay: not given
Conditions: cited from earlier work

| SMILES | oral bioavailability |
| --- | --- |
| C[C@@H](O)CCCCn1c(=O)c2c(ncn2C)n(C)c1=O [LSF, 1-(5-R-hydroxyhexyl)-3,7-dimethylxanthine] | not orally bioavailable |

System: non-obese diabetic (NOD) mouse
Assay: not given
Conditions: cited from earlier work

| SMILES | spontaneous Type 1 diabetes development |
| --- | --- |
| C[C@@H](O)CCCCn1c(=O)c2c(ncn2C)n(C)c1=O [LSF, 1-(5-R-hydroxyhexyl)-3,7-dimethylxanthine] | significantly reduce |

System: β-cells
Assay: not given
Conditions: maintains insulin secretory capability and cell viability; cited from earlier work

| SMILES | protection of β-cells from inflammatory cytokine-mediated injuries |
| --- | --- |
| C[C@@H](O)CCCCn1c(=O)c2c(ncn2C)n(C)c1=O [LSF, 1-(5-R-hydroxyhexyl)-3,7-dimethylxanthine] | able to protect β-cells |
